Results from publication PMC11984407, “A natural small molecule isoginkgetin alleviates hypercholesterolemia and atherosclerosis by targeting ACLY” (Theranostics, 2025).

What was measured:
rhesus monkeys = test system: rhesus monkeys; set-up: method as in PMID 36873173; details: two weeks; cited from earlier work
[1] = test system: high and very high cardiovascular risk patients intolerant to statins; set-up: method as in PMID 36876740; details: statin-intolerant patients, LDL-C ≥100 mg/dL; cited from earlier work
[2] = Copper-induced LDL oxidation, agarose gel electrophoresis; details: varying concentrations, copper 5 μM
Method: Prior to oxidation, EDTA was removed from LDL solutions (YB-001; Yiyuan Biotechnologies, Guangzhou, China). Subsequently, LDL solutions at a concentration of 0.2 mg/mL were incubated with varying concentrations of ISOGK in PBS for one h at 37 °C. The oxidation process was initiated by combining both native LDL and LDL pretreated with ISOGK with copper sulfate (99.0% purity; Jinshanting New Chemical Reagent Factory, Shanghai, China) to achieve a final copper concentration of 5 μM in PBS. This mixture was then incubated at 37 °C. Agarose gel electrophoresis was performed utilizing 0.5% agarose gels prepared in a sodium barbital buffer, following the stipulated electrophoretic methodology. The procedure was carried out in a 0.075 M sodium barbital buffer at a constant voltage of 55 V for a duration of one h. The relative electrophoretic mobility (REM) was determined by calculating the ratio of the migration distance of oxidized LDL to that of native LDL.

CC(C)c1c(C(=O)Nc2ccccc2)c(-c2ccccc2)c(-c2ccc(F)cc2)n1CC[C@@H](O)C[C@@H](O)CC(=O)O [atorvastatin]
LDL-C reduction from the baseline (rhesus monkeys): 19.4%

CC(C)(CCCCCC(O)CCCCCC(C)(C)C(=O)O)C(=O)O [Bempedoic acid, bempedoic acid]
primary composite endpoint vs placebo [1]: slight reduction in the primary composite endpoint

Vitamin E [reference compound]
antioxidant activity against copper-induced LDL oxidation (REM) [2]: retards LDL
